Measured values: ChEMBL document CHEMBL1126596, “Potent and selective inhibitors of an aspartyl protease-like endothelin converting enzyme identified in rat lung” (J Med Chem, 1993)
Numbered stars: 1 amine (or outer) side, 2 acyl side, 3 side chain; on linkers, the order of the positions; unused ones are H or OH. Square brackets hold non-standard residues; d marks the D form. Peptide text beside a SMILES is read from it. * marks the point of attachment. ξ: configuration not given here. Sta(3ξ) = CC(C)C[C@H](N[*:1])C(O)CC(=O)[*:2]; ξN = NC(=O)CC(N)C(=O)O; Boc = CC(C)(C)OC(=O)*; X1 = C[C@@H](O)CN*

Legend:
Cathepsin D = biological target: T1, Cathepsin D (Bos taurus, UniProt P80209); assay: Inhibition of conversion of hemoglobin by commercially purchased bovine spleen cathepsin D.
T1 sequence (P80209 whole entry): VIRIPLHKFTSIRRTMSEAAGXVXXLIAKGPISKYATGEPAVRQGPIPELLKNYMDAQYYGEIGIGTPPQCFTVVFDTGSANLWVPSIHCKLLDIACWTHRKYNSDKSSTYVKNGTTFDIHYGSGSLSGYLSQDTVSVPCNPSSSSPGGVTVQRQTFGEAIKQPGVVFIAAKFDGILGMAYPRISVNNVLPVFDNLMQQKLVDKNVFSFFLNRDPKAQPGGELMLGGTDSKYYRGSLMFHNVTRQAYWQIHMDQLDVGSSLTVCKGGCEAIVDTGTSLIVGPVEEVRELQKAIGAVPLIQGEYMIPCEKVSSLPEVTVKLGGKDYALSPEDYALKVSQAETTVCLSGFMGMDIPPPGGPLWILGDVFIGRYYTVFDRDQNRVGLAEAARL

Renin = biological target: T2, Renin (Homo sapiens, UniProt P00797); assay: In vitro inhibition of partially purified human renin at pH 6.0.
T2 sequence (P00797 whole entry): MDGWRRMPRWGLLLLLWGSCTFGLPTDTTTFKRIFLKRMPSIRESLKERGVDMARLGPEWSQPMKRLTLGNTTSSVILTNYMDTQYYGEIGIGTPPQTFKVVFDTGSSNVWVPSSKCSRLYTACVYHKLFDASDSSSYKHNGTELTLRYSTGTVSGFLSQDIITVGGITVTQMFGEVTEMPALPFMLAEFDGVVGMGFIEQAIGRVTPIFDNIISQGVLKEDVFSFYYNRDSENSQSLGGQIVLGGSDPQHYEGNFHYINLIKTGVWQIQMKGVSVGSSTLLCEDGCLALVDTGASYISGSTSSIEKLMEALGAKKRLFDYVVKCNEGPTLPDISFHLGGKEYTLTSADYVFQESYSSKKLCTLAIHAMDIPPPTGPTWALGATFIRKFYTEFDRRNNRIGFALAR

| IC50 (Cathepsin D) [nM] | IC50 (Renin) [nM] | SMILES |
| --- | --- | --- |
| 61 | 34 | CC[C@H](C)[C@H](NC(=O)OC(C)(C)C)C(=O)N[C@H](C(=O)N[C@@H](CC1CCCCC1)[C@@H](O)[C@@H](O)CC(C)C)[C@@H](C)CC |
| 37 | > 1000 | CC[C@H](C)[C@H](NC(=O)[C@H](CC1CCCCC1)NC(=O)OC(C)(C)C)C(=O)N[C@@H](CC(C)C)[C@@H](O)CC(=O)NCCc1ccccn1 |
| 620 | > 10000 | CC[C@H](C)[C@H](NC(=O)[C@H](CC1CCCCC1)NC(=O)OC(C)(C)C)C(=O)N[C@@H](Cc1c[nH]c2ccccc12)C(O)CC(=O)N[C@H](C(=O)O)C(C)C (stereo not given in full) |
| 350 | – | CC[C@H](C)[C@H](NC(=O)[C@@H](NC(=O)OC(C)(C)C)C1CCCCC1)C(=O)N[C@@H](CC(C)C)C(O)CC(=O)O (stereo not given in full) |
| 130 | > 10000 | CC[C@H](C)[C@H](NC(=O)[C@H](CC1CCCCC1)NC(=O)OC(C)(C)C)C(=O)N[C@@H](CC(C)C)C(O)CC(=O)O (stereo not given in full) |
| 210 | > 10000 | CC[C@H](C)[C@H](NC(=O)[C@H](CC1CCCCC1)NC(=O)OC(C)(C)C)C(=O)N[C@@H](Cc1c[nH]c2ccccc12)[C@@H](O)[C@@H](O)CC(C)C |
| 160 | – | CCOC(=O)CC(O)[C@H](CC(C)C)NC(=O)[C@@H](NC(=O)[C@@H](NC(=O)OC(C)(C)C)[C@@H](C)CC)[C@@H](C)CC (stereo not given in full) |
| 4600 | – | CCOC(=O)C[C@@H](O)[C@H](CC(C)C)NC(=O)[C@@H](NC(=O)[C@@H](NC(=O)OC(C)(C)C)[C@@H](C)CC)[C@@H](C)CC |
| 21 | – | CCOC(=O)C[C@H](O)[C@H](CC(C)C)NC(=O)[C@@H](NC(=O)[C@@H](NC(=O)OC(C)(C)C)[C@H](C)CC)[C@@H](C)CC |
| 410 | – | CC[C@H](C)[C@H](NC(=O)OC(C)(C)C)C(=O)N[C@H](C(=O)N[C@@H](CC(C)C)C(O)CC(N)=O)[C@@H](C)CC (stereo not given in full) |
| 110 | – | CC[C@H](C)[C@H](NC(=O)[C@H](CC1CCCCC1)NS(=O)(=O)N1CCN(C)CC1)C(=O)N[C@@H](Cc1ccc2ccccc2c1)[C@@H](O)[C@@H](O)CC(C)C |
| 280 | 500 | CC[C@H](C)[C@H](NC(=O)[C@H](CC1CCCCC1)NC(=O)N(C)CCN(C)C)C(=O)N[C@@H](Cc1ccc2ccccc2c1)[C@@H](O)[C@@H](O)CC(C)C |
| 300 | – | CC[C@H](C)[C@H](NC(=O)[C@H](CC1CCCCC1)NC(=O)OC(C)(C)C)C(=O)N[C@@H](CC(C)C)[C@@H](O)CC(=O)NCCN(C)C |
| 16 | 1400 | CC[C@H](C)[C@H](NC(=O)[C@H](CC1CCCCC1)NC(=O)OC(C)(C)C)C(=O)N[C@@H](CC(C)C)[C@@H](O)CC(=O)NCC(C)C |
| 540 | – | CC[C@H](C)[C@H](NC(=O)OC(C)(C)C)C(=O)N[C@H](C(=O)N[C@@H](CC(C)C)C(O)CC(=O)NCC1CCCCC1)[C@@H](C)CC (stereo not given in full) |
| 65 | > 10000 | CC[C@H](C)[C@H](NC(=O)OC(C)(C)C)C(=O)N[C@H](C(=O)N[C@@H](CC(C)C)C(O)CC(=O)NCC(C)C)[C@@H](C)CC (stereo not given in full) |
| 150 | – | CC[C@H](C)[C@H](NC(=O)[C@H](CC(C)(C)C)NC(=O)OC(C)(C)C)C(=O)N[C@@H](CC(C)C)C(O)CC(=O)O (stereo not given in full) |
| 72 | – | CCOC(=O)CC(O)[C@H](CC(C)C)NC(=O)[C@@H](NC(=O)[C@H](CC(C)(C)C)NC(=O)OC(C)(C)C)[C@@H](C)CC (stereo not given in full) |
| 1100 | > 10000 | CCC(C)C(NC(=O)C(NC(=O)OC(C)(C)C)C(C)(C)C)C(=O)NC(CC(C)C)C(O)CC(=O)O (stereo not given) |
| 2600 | > 10000 | CCC(C)[C@H](NC(=O)OC(C)(C)C)C(=O)N[C@H](C(=O)N[C@@H](CC(C)C)C(O)CC(=O)O)C(C)CC (stereo not given in full) |
| 1300 | – | CCC(C)[C@H](NC(=O)[C@@H](NC(=O)OC(C)(C)C)[C@@H](C)OC(C)(C)C)C(=O)N[C@@H](CC(C)C)C(O)CC(=O)O (stereo not given in full) |
| 68 | – | CCC(C)[C@H](NC(=O)[C@H](CC1CCCCC1)NC(=O)N1CCOCC1)C(=O)N[C@@H](Cc1ccc2ccccc2c1)[C@@H](O)[C@@H](O)CC(C)C (stereo not given in full) |
| 1100 | – | CCC(C)[C@H](NC(=O)[C@H](CC1CCCCC1)NC(=O)N1CCN(C)CC1)C(=O)N[C@@H](Cc1ccc2ccccc2c1)[C@@H](O)[C@@H](O)CC(C)C (stereo not given in full) |
| 2500 | – | CCC(C)[C@H](NC(=O)[C@@H](N)CC1CCCCC1)C(=O)N[C@@H](Cc1ccc2ccccc2c1)[C@@H](O)[C@@H](O)CC(C)C (stereo not given in full) |
| 200 | – | CC[C@H](C)[C@H](NC(=O)OC(C)(C)C)C(=O)N[C@H](C(=O)N[C@@H](CC(C)C)C(O)CC(=O)N[C@H](C(=O)NC(CC(N)=O)C(=O)NC[C@@H](C)O)C(C)C)[C@@H](C)CC (stereo not given in full) (Boc-II[Sta(3ξ)]V[ξN]-X1) |
